From patent publication US12168008B2, “Oxabicycloheptanes for modulation of immune response” (LIXTE BIOTECHNOLOGY, INC., priority 2016, dated 2024)
Where two headings read alike, the source gives them in different places.

Experiments:
mouse B16 melanoma = assay: B16 melanoma tumor-bearing mice (FIG. 12, 17-19); format: in vivo
Protocol: FIG. 12. […] Treatment was started on the same day of tumor implantation. Control—PBS, Low dose—0.16 mg/kg, Medium dose—0.32 mg/kg.
FIG. 17A. CD8+CD44+ effector T cells are increased with PP2A inhibitor LB-100 treatment. Percentage of CD8+CD44+T effector cells population in tumor draining lymph node from B16 tumor bearing mice treated with LB-100 or PBS. 5 mice per group.

[1] = format: in vivo, human; settings: for dose limiting toxicity (reversible increases in serum creatinine or calculated serum creatinine clearance): 3.1 mg/m2
Protocol: Experimental Design: LB-100 was administered intravenously daily for 3 days in 21-day cycles in a 3+3 dose-escalation design. The primary goal was to determine the maximum tolerated dose and recommended phase 2 dose (ClinicalTrials.gov: NCT01837667).
Eligible patients were aged 18 years or older with proven progressive solid tumors who had failed standard treatments. Patients had to have a life expectancy of at least 12 weeks, an ECOG performance status of 0 or 1, and be able to give informed consent. […] They must not have any other uncontrolled systemic disease. Women of childbearing potential had to have a negative serum or urine pregnancy test result.
An open-label, dose-escalation, phase I study was performed to assess the safety, tolerability, and activity of LB-100 administered for 3 consecutive days every 3 weeks. Pharmacokinetic studies were planned at the maximum tolerable dose (MTD). The starting dose, 0.25 mg/m^2, 1/15th of the highest non-severely toxic dose in dogs, and plan of dose escalation was specified by the FDA. The study was approved by the human investigations committee at each study center and is registered at clinicaltrials.gov: NCT01837667.
LB-100 was supplied as a single use solution. Initially, LB-100 was administered in 50 mL of saline over 15 minutes. […] Dose escalation was prohibited within any cohort. Patients were eligible to receive up to 6 cycles of study therapy, unless unacceptable toxicity, disease progression, or inter-current illness required discontinuation. More than 6 cycles were allowed in the absence of progression and toxicity. Because of cardiac and renal toxicity at high doses in animal toxicology studies, patients had extensive monitoring including ECG, MUGA or echocardiogram, cardiac troponins, and BNP prior to every cycle. Blood chemistries, urinalysis, hematologic profile and vital signs were monitored prior to and on day 1, 3, 8, 15, and 22 of each cycle. Laboratory parameters were tabulated by maximum NCI-CTCAE (Version 4.0) severity grade. A safety review committee assessed all clinical data every 2 weeks and approved dose escalation between cohorts.
Doses of LB-100 were escalated in groups of three patients. […] When a potential DLT occurred, three new patients were entered at that dose. If another DLT occurred, three additional patients were treated at the previous non-DLT dose to determine the safety of that level for phase 2 trials.
Response to treatment was assessed using RECIST version 1.1. All patients with measurable disease, who completed 2 cycles of LB-100 and had at least 1 post-baseline tumor assessment, were evaluable for efficacy. Patients receiving any LB-100 were evaluable for safety. The severity of adverse events and laboratory abnormalities is reported according to NCI-CTCAE version 4.0 and coded using Medical Dictionary for Regulatory Activities.

PP2A = PP2A phosphatase assay in activated T cells; format: cell-based, mouse; settings: 3 hours after stimulation with CD3 and CD28; greater effect in CD8
Protocol: LB-100 inhibits PP2A activity and enhances mTORC1 activation: PP2A enzymatic activity of isolated CD4 and CD8 cells from mice splenocytes were measured 3 hours after in vitro stimulation with plated CD3 and soluble CD28.
PP2A phosphatase assay—Mouse CD4+ and CD8+ T cells were isolated with CD4 and CD8 isolation kit (StemCell) respectively. Cells were activated using immobilized anti-CD3 (10 ug/ml) and soluble anti-CD28 (2 ug/ml) for three hour. PP2A activity was then evaluated after immunoprecipitation using a malachite green phosphatase assay kit as per the manufacturer's instructions (EMD Millipore).

Which results are given for CN1CCN(C(=O)C2C(C(=O)O)[C@H]3CC[C@@H]2O3)CC1 (stereo partly shown) [LB-100]?
B16 melanoma tumor growth (mouse B16 melanoma; every two days for 8 doses from day of implantation, 0.16 and 0.32 mg/kg): reduced mouse B16 melanoma tumor growth significantly; CD8+CD44+ effector T cells in tumor draining lymph node (mouse B16 melanoma; vs PBS, 5 mice per group): increased; CD44+CD62L− CD4 effector T cells in lymph node (mouse B16 melanoma; vs PBS, 5 mice per group): Increased; CD44+CD62L− CD8 effector T cells in lymph node (mouse B16 melanoma; vs PBS, 5 mice per group): Increased; DLT during the first 6 dose levels ([1]; 0.25-2.33 mg/m^2): no DLT; HEADACHE, patients n (%) ([1]; Grade 1-2): 3 (10.3%); HEADACHE, patients n (%) ([1]; Grade 3): 0; HEADACHE, patients n (%) ([1]; Grade 4): 0; ABDOMINAL DISCOMFORT, patients n (%) ([1]; Grade 5): 0; ABDOMINAL DISTENSION, patients n (%) ([1]; Grade 5): 0; ACCELERATED HYPERTENSION, patients n (%) ([1]; Grade 5): 0; ALANINE AMINOTRANSFERASE INCREASED, patients n (%) ([1]; Grade 5): 0; ANAEMIA, patients n (%) ([1]; Grade 5): 0; ARTHRALGIA, patients n (%) ([1]; Grade 5): 0; BLOOD ALKALINE PHOSPHATASE INCREASED, patients n (%) ([1]; Grade 5): 0; BLOOD UREA INCREASED, patients n (%) ([1]; Grade 5): 0; CANDIDIASIS, patients n (%) ([1]; Grade 5): 0; CHEST PAIN, patients n (%) ([1]; Grade 5): 0; CHILLS, patients n (%) ([1]; Grade 5): 0; CONSTIPATION, patients n (%) ([1]; Grade 5): 0; DECREASED APPETITE, patients n (%) ([1]; Grade 5): 0; DERMATITIS ACNEIFORM, patients n (%) ([1]; Grade 5): 0; DIARRHOEA, patients n (%) ([1]; Grade 5): 0; DIZZINESS, patients n (%) ([1]; Grade 5): 0; EJECTION FRACTION DECREASED, patients n (%) ([1]; Grade 5): 0; ELECTROCARDIOGRAM QT PROLONGED, patients n (%) ([1]; Grade 5): 0; GAIT DISTURBANCE, patients n (%) ([1]; Grade 5): 0; GASTROINTESTINAL DISORDER, patients n (%) ([1]; Grade 5): 0; GENERALISED OEDEMA, patients n (%) ([1]; Grade 5): 0; GINGIVAL PAIN, patients n (%) ([1]; Grade 5): 0; HEADACHE, patients n (%) ([1]; Grade 5): 0; HYPERCALCAEMIA, patients n (%) ([1]; Grade 5): 0; HYPERKALAEMIA, patients n (%) ([1]; Grade 5): 0; HYPERNATRAEMIA, patients n (%) ([1]; Grade 5): 0; HYPERTENSION, patients n (%) ([1]; Grade 5): 0; HYPOAESTHESIA, patients n (%) ([1]; Grade 5): 0; HYPOALBUMINAEMLA, patients n (%) ([1]; Grade 5): 0; HYPOKINESIA, patients n (%) ([1]; Grade 5): 0; HYPOTENSION, patients n (%) ([1]; Grade 5): 0; HYPOXIA, patients n (%) ([1]; Grade 5): 0; INSOMNIA, patients n (%) ([1]; Grade 5): 0; MUCOSAL INFLAMMATION, patients n (%) ([1]; Grade 5): 0; MUSCLE TWITCHING, patients n (%) ([1]; Grade 5): 0; MUSCULAR WEAKNESS, patients n (%) ([1]; Grade 5): 0; NAUSEA, patients n (%) ([1]; Grade 5): 0; NEUROPATHY PERIPHERAL, patients n (%) ([1]; Grade 5): 0; NEUTROPENIA, patients n (%) ([1]; Grade 5): 0; OEDEMA PERIPHERAL, patients n (%) ([1]; Grade 5): 0; OEDEMA, patients n (%) ([1]; Grade 5): 0; PAIN OF SKIN, patients n (%) ([1]; Grade 5): 0; PERIPHERAL COLDNESS, patients n (%) ([1]; Grade 5): 0; PERIPHERAL SENSORY NEUROPATHY, patients n (%) ([1]; Grade 5): 0; PLATELET COUNT DECREASED, patients n (%) ([1]; Grade 5): 0; PLEURAL EFFUSION, patients n (%) ([1]; Grade 5): 0; PROTEINURIA, patients n (%) ([1]; Grade 5): 0; PYREXIA, patients n (%) ([1]; Grade 5): 0; SINUS TACHYCARDIA, patients n (%) ([1]; Grade 5): 0; recommended phase 2 dose ([1]; daily for 3 days every 3 weeks, i.v.): 2.33 mg/m2; Probable or possible study drug related Grade 3 adverse events ([1]; human, in vivo): 6 (20.7%) patients (%); dose limiting toxicity (reversible increases in serum creatinine or calculated serum creatinine clearance) ([1]; human, in vivo): 2/4; symptomatic toxicity ([1]; in vivo): no symptomatic toxicity other than reversible mild to moderate fatigue; toxicities suggestive of autoimmune activity ([1]; in vivo): no patient experienced toxicities suggestive of autoimmune activity; dose limiting toxicity (reversible increases in serum creatinine or calculated serum creatinine clearance) ([1]; in vivo): Two; PP2A enzymatic activity in CD4 and CD8 cells (PP2A): dose dependent decrease
